Usually IC50 stands for the midpoint of a concentration-inhibition curve.

These results are taken from patent US8613914B2, “Peptidomimetic sulfamide compounds and antiviral uses thereof” (Novartis AG, priority 2009, dated 2013).

HCV NS3-4A serine protease (full-length NS3-4A protein), sequence (P26664 1027-1657): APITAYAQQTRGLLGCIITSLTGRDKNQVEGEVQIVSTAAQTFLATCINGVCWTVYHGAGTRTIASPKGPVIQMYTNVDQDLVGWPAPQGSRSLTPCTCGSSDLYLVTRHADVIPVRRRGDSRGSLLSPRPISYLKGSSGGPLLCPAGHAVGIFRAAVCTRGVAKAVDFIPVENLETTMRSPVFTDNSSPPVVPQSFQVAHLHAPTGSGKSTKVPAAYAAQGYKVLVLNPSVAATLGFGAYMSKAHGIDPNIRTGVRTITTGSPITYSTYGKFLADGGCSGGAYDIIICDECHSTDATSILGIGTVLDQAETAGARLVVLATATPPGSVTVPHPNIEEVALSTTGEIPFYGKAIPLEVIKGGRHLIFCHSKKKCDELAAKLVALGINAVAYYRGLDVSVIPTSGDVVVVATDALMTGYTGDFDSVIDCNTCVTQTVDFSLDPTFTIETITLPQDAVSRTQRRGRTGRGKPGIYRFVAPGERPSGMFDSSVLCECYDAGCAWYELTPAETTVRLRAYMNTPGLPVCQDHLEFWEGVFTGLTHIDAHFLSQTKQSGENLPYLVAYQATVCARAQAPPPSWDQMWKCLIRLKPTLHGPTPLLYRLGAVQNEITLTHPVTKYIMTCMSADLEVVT
HCV NS3-4A serine protease (full-length NS3-4A protein), sequence (P26664 1658-1711 partner): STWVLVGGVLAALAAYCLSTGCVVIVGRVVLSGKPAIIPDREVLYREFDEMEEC

The target of this test is HCV NS3-4A serine protease (full-length NS3-4A protein) (Hepatitis C virus genotype 1a (isolate 1) (HCV), UniProt P26664). Put plainly: HCV NS3-4A protease assay. In kind it is biochemical, HCV genotype 1a. The settings on record: strain HCV-1, fluorogenic peptide substrate, read-out: Protease assay Ex. 12 IC50. The protocol:
The inhibitory activity of certain compounds of Table A against HCV NS3-4A serine protease is determined in a homogenous assay using the full-length NS3-4A protein (genotype 1a, strain HCV-1) and a commercially available internally-quenched fluorogenic peptide substrate as described by Taliani, M., et al. 1996 Anal. Biochem. 240:60-67, which is incorporated by reference in its entirety.
With `CC[C@@H]1C[C@]1(NC(=O)[C@@H]1C[C@@]2(CN1C(=O)[C@@H](NC(=O)[C@@H](NC(=O)[C@@H]1CCCN1C(C)C)C1CCCCC1)C(C)(C)C)C(C)(C)C21CCC1)C(=O)NS(=O)(=O)N1CCCC1` [Compound 116, (5R,8S)-7-[(2S)-2-{[(2S)-2-cyclohexyl-2-({[(2S)-1-isopropylpyrrolidin-2-yl]carbonyl}amino)acetyl]amino}-3,3-dimethylbutanoyl]-N-{(1R,2R)-2-ethyl-1-[(pyrrolidin-1-ylsulfonyl)carbamoyl]cyclopropyl}-10,10-dimethyl-7-azadispiro[3.0.4.1]decane-8-carboxamide], the half-maximal inhibitory concentration (IC50) was found to be 4.5 nM.

As for `CC[C@@H]1C[C@]1(NC(=O)[C@@H]1C[C@@]2(CN1C(=O)[C@@H](NC(=O)[C@@H](NC(=O)[C@@H]1CCCN1C(C)C)C1CCCCC1)C(C)(C)C)C(C)(C)C21CCC1)C(=O)NS(=O)(=O)N(CC)CC` [Compound 117, (5R,8S)-7-[(2S)-2-{[(2S)-2-cyclohexyl-2-({[(2S)-1-isopropylpyrrolidin-2-yl]carbonyl}amino)acetyl]amino}-3,3-dimethylbutanoyl]-N-[(1R,2R)-1-{[(diethylamino)sulfonyl]carbamoyl}-2-ethylcyclopropyl]-10,10-dimethyl-7-azadispiro[3.0.4.1]decane-8-carboxamide], the IC50 came to 5.5 nM.

As to `C=C[C@@H]1C[C@]1(NC(=O)[C@@H]1C[C@@]2(CN1C(=O)[C@@H](NC(=O)[C@@H](NC(=O)[C@@H]1CCCCN1C)C1CCCCC1)C(C)(C)C)C(C)(C)C21CCC1)C(=O)NS(=O)(=O)N(CC)CC` [Compound 118, (5R,8S)-7-[(2S)-2-{[(2S)-2-cyclohexyl-2-({[(2S)-1-methylpiperidin-2-yl]carbonyl}amino)acetyl]amino}-3,3-dimethylbutanoyl]-N-[(1R,2S)-1-{[(diethylamino)sulfonyl]carbamoyl}-2-vinylcyclopropyl]-10,10-dimethyl-7-azadispiro[3.0.4.1]decane-8-carboxamide], the IC50 came out at 4.5 nM. As for `C=C[C@@H]1C[C@]1(NC(=O)[C@@H]1C[C@@]2(CN1C(=O)[C@@H](NC(=O)[C@@H](NC(=O)[C@H]1CCCCN1C(C)C)C1CCCCC1)C(C)(C)C)C(C)(C)C21CCC1)C(=O)NS(=O)(=O)N(C)C(C)C` [Compound 119, (5R,8S)-7-[(2S)-2-{[(2S)-2-cyclohexyl-2-({[(2R)-1-isopropylpiperidin-2-yl]carbonyl}amino)acetyl]amino}-3,3-dimethylbutanoyl]-N-[(1R,2S)-1-({[isopropyl(methyl)amino]sulfonyl}carbamoyl)-2-vinylcyclopropyl]-10,10-dimethyl-7-azadispiro[3.0.4.1]decane-8-carboxamide], the figure is 6.5 nM.

With `C=C[C@@H]1C[C@]1(NC(=O)[C@@H]1C[C@@]2(CN1C(=O)[C@@H](NC(=O)[C@@H](NC(=O)[C@H]1CCCCN1C(C)C)C1CCCCC1)C(C)(C)C)C(C)(C)C21CCC1)C(=O)NS(=O)(=O)N(CC)C(C)C` [Compound 120, (5R,8S)-7-[(2S)-2-{[(2S)-2-cyclohexyl-2-({[(2R)-1-isopropylpiperidin-2-yl]carbonyl}amino)acetyl]amino}-3,3-dimethylbutanoyl]-N-[(1R,2S)-1-({[ethyl(isopropyl)amino]sulfonyl}carbamoyl)-2-vinylcyclopropyl]-10,10-dimethyl-7-azadispiro[3.0.4.1]decane-8-carboxamide], the IC50 worked out at 10 nM. As for `CC[C@@H]1C[C@]1(NC(=O)[C@@H]1C[C@@]2(CN1C(=O)[C@@H](NC(=O)[C@@H](NC(=O)[C@H]1CCCCN1C(C)C)C1CCCCC1)C(C)(C)C)C(C)(C)C21CCC1)C(=O)NS(=O)(=O)N(CC)CC` [Compound 121, (5R,8S)-7-[(2S)-2-{[(2S)-2-cyclohexyl-2-({[(2R)-1-isopropylpiperidin-2-yl]carbonyl}amino)acetyl]amino}-3,3-dimethylbutanoyl]-N-[(1R,2R)-1-{[(diethylamino)sulfonyl]carbamoyl}-2-ethylcyclopropyl]-10,10-dimethyl-7-azadispiro[3.0.4.1]decane-8-carboxamide], the figure is 7 nM; as for `C=C[C@@H]1C[C@]1(NC(=O)[C@@H]1C[C@@]2(CN1C(=O)[C@@H](NC(=O)[C@@H](NC(=O)[C@@H]1CCCCN1C(C)C)C(C)C)C(C)(C)C)C(C)(C)C21CCC1)C(=O)NS(=O)(=O)N(CC)CC` [Compound 122, (5R,8S)-N-[(1R,2S)-1-{[(diethylamino)sulfonyl]carbamoyl}-2-vinylcyclopropyl]-7-[(2S)-2-{[(2S)-2-({[(2S)-1-isopropylpiperidin-2-yl]carbonyl}amino)-3-methylbutanoyl]amino}-3,3-dimethylbutanoyl]-10,10-dimethyl-7-azadispiro[3.0.4.1]decane-8-carboxamide], 1.4 nM; as for `CC[C@@H]1C[C@]1(NC(=O)[C@@H]1C[C@@]2(CN1C(=O)[C@@H](NC(=O)[C@@H](NC(=O)[C@H]1CCCCN1C(C)C)C1CCCCC1)C(C)(C)C)C(C)(C)C21CCC1)C(=O)NS(=O)(=O)N1CCCC1` [Compound 123, (5R,8S)-7-[(2S)-2-{[(2S)-2-cyclohexyl-2-({[(2R)-1-isopropylpiperidin-2-yl]carbonyl}amino)acetyl]amino}-3,3-dimethylbutanoyl]-N-{(1R,2R)-2-ethyl-1-[(pyrrolidin-1-ylsulfonyl)carbamoyl]cyclopropyl}-10,10-dimethyl-7-azadispiro[3.0.4.1]decane-8-carboxamide], 8 nM. As for `C=C[C@@H]1C[C@]1(NC(=O)[C@@H]1C[C@@]2(CN1C(=O)[C@@H](NC(=O)[C@@H](NC(=O)[C@@H]1CCCCN1C(C)C)C1CCCCC1)C1(C)CCOCC1)C(C)(C)C21CCC1)C(=O)NS(=O)(=O)N1CCCC1` [Compound 124, (5R,8S)-7-[(2S)-2-{[(2S)-2-cyclohexyl-2-({[(2S)-1-isopropylpiperidin-2-yl]carbonyl}amino)acetyl]amino}-2-(4-methyltetrahydro-2H-pyran-4-yl)acetyl]-10,10-dimethyl-N-{(1R,2S)-1-[(pyrrolidin-1-ylsulfonyl)carbamoyl]-2-vinylcyclopropyl}-7-azadispiro[3.0.4.1]decane-8-carboxamide], the figure is 1.5 nM; as for `C=C[C@@H]1C[C@]1(NC(=O)[C@@H]1C[C@@]2(CN1C(=O)[C@@H](NC(=O)[C@@H](NC(=O)[C@@H]1CCCN1CC)C1CCCCC1)C1(C)CCOCC1)C(C)(C)C21CCC1)C(=O)NS(=O)(=O)N1CCCC1` [Compound 125, (5R,8S)-7-[(2S)-2-{[(2S)-2-cyclohexyl-2-({[(2S)-1-ethylpyrrolidin-2-yl]carbonyl}amino)acetyl]amino}-2-(4-methyltetrahydro-2H-pyran-4-yl)acetyl]-10,10-dimethyl-N-{(1R,2S)-1-[(pyrrolidin-1-ylsulfonyl)carbamoyl]-2-vinylcyclopropyl}-7-azadispiro[3.0.4.1]decane-8-carboxamide], below 0.3 nM; as for `C=C[C@@H]1C[C@]1(NC(=O)[C@@H]1C[C@@]2(CN1C(=O)[C@@H](NC(=O)[C@@H](NC(=O)[C@@H]1CCCN1CC)C(C)(C)C)C1(C)CCOCC1)C(C)(C)C21CCC1)C(=O)NS(=O)(=O)N1CCCC1` [Compound 126, 1-ethyl-L-prolyl-N-[(1S)-2-[(5R,8S)-10,10-dimethyl-8-({(1R,2S)-1-[(pyrrolidin-1-ylsulfonyl)carbamoyl]-2-vinylcyclopropyl}carbamoyl)-7-azadispiro[3.0.4.1]dec-7-yl]-1-(4-methyltetrahydro-2H-pyran-4-yl)-2-oxoethyl]-3-methyl-L-valinamide], 6 nM. As for `C=C[C@@H]1C[C@]1(NC(=O)[C@@H]1C[C@@]2(CN1C(=O)[C@@H](NC(=O)[C@@H](NC(=O)[C@@H]1CCCCN1C(C)C)C1CCOCC1)C1(C)CCOCC1)C(C)(C)C21CCC1)C(=O)NS(=O)(=O)N1CCCC1` [Compound 127, (5R,8S)-7-[(2S)-2-{[(2S)-2-({[(2S)-1-isopropylpiperidin-2-yl]carbonyl}amino)-2-(tetrahydro-2H-pyran-4-yl)acetyl]amino}-2-(4-methyltetrahydro-2H-pyran-4-yl)acetyl]-10,10-dimethyl-N-{(1R,2S)-1-[(pyrrolidin-1-ylsulfonyl)carbamoyl]-2-vinylcyclopropyl}-7-azadispiro[3.0.4.1]decane-8-carboxamide], the figure is 4 nM. `C=C[C@@H]1C[C@]1(NC(=O)[C@@H]1C[C@@]2(CN1C(=O)[C@@H](NC(=O)[C@@H](NC(=O)[C@@H]1CCCCN1C(C)C)C(C)(C)C)C1(C)CCOCC1)C(C)(C)C21CCC1)C(=O)NS(=O)(=O)N1CCCC1` [Compound 128, (5R,8S)-7-[(2S)-2-[(N-{[(2S)-1-isopropylpiperidin-2-yl]carbonyl}-3-methyl-L-valyl)amino]-2-(4-methyltetrahydro-2H-pyran-4-yl)acetyl]-10,10-dimethyl-N-{(1R,2S)-1-[(pyrrolidin-1-ylsulfonyl)carbamoyl]-2-vinylcyclopropyl}-7-azadispiro[3.0.4.1]decane-8-carboxamide]: the IC50 came out at 1.4 nM. As for `C=C[C@@H]1C[C@]1(NC(=O)[C@@H]1C[C@@]2(CN1C(=O)[C@@H](NC(=O)[C@@H](NC(=O)[C@@H]1CCCN1CC)C1CCOCC1)C1(C)CCOCC1)C(C)(C)C21CCC1)C(=O)NS(=O)(=O)N1CCCC1` [Compound 129, (5R,8S)-7-[(2S)-2-{[(2S)-2-({[(2S)-1-ethylpyrrolidin-2-yl]carbonyl}amino)-2-(tetrahydro-2H-pyran-4-yl)acetyl]amino}-2-(4-methyltetrahydro-2H-pyran-4-yl)acetyl]-10,10-dimethyl-N-{(1R,2S)-1-[(pyrrolidin-1-ylsulfonyl)carbamoyl]-2-vinylcyclopropyl}-7-azadispiro[3.0.4.1]decane-8-carboxamide], the figure is 6 nM.
